Data taken from patent US20090088323A1, “Compositions with cyclopropenes and adjuvants” (priority 2004, published 2009).

Columns and labels:
[1] = tested on: Tomatoes (Rutgers 39 Variety); test: Tomato epinasty test (foliar spray to run off, then ethylene exposure); type: in vivo
Experimental: Tomato epinasty tests were performed as follows:
Two seeds were place in each pot. Plants that had expanded first true leaves and were between 3 and 5 inches high were used for the tomato epinasty test.
To conduct the assay, the plants were sprayed-to run off with the test 1-MCP foliar spray and allowed to dry for 4 hours in sunlight These operations were performed in a ventilated area away from the plants growing in the greenhouse so there would not be any unintended treatment to growing plants destined for later experiments.
(§1) The 1-MCP treated plants and both treated and untreated controls were placed into an SLX controlled-atmosphere shipping box and sealed. To the box, ethylene was injected through a septum, which gave a concentration of 14 ppm. The plants were held sealed for 12-14 hours in the dark with ethylene in the atmosphere. At the end of ethylene treatment, the box was opened and scored for epinasty. Scoring for epinasty was accomplished by using the following scoring system for each pot. • 1. 0% no epinasty (100% control) • 2. 20% A couple leaves show some drooping (80% control) • 3. 50% Plants show 50% of full response. Not all leaves need to show effect. (50% control) • 4. 80% Almost all leaves drooping and some show underside of leaf exposed on top. (20% control) • 5. 100% Leaves completely drooping and the underside of the leaf exposed from above. (0% control)
The score of each pot is recorded. The average of 6 or 8 pots is averaged to get a score. The percentage improvement is calculated by interpolating the percentage improvement from the control water (i.e., no additives) 1-MCP treatment.
Tomato epinasty tests were conducted using a formulation that included water, a 1-MCP α-CD complex, and sodium salt of EDTA. […] The amount of sodium salt of EDTA in each formulation was 100 ppm. In some formulations, further ingredients were included, as described in the examples below.
Tomato epinasty tests were conducted using a formulation that included water; a 1-MCP α-CD complex that contained 0. […] The amount of 1-MCP α-CD complex was chosen so that the spray formulation had 1.2 ppm of 1-MCP. The amount of sodium salt of EDTA was kept at 50 ppm in the liquid. Also included in the spray formulations were various silicone oils (0.1% by weight based on the weight of the spray).
The amount of 1-MCP α-CD complex was chosen so that the spray formulation had 1.2 ppm of 1-MCP. The amount of sodium salt of EDTA was kept at 50 ppm. Also included in the spray formulations were various silicone oils at 0.1% by weight based on the weight of the spray formulation and sodium dioctylsufosuccinate surfactant at 0.05% by weight based on the weight of the spray formulation.

[2] = tested on: Tomatoes (Rutgers 39 Variety); test: Tomato epinasty test, plants sprayed in spray hood with motorized track sprayer; type: in vivo; conditions: 1-MCP spray rate 20 grams/hectare, no adjuvant
Experimental: Tomatoes (Rutgers 39 Variety Harris Seeds No 885 Lot 37729-A3) were grown in 2 ½″ square pots filled with a commercial potting mix. Two seeds were place in each pot. Plants that had expanded first true leaves and were between 3 and 5 inches high were used for the tomato epinasty test.
as §1
The score of each pot is recorded. The average of 6 or 8 pots is averaged to get a score. The percentage improvement is calculated by interpolating the percentage improvement from the control water (i.e., no additives) 1-MCP treatment. […]

## CC1=CC1 [1-MCP, 1-methylcyclopropene]
[1]; 1.2 ppm 1-MCP, silicone oil 0.1 weight % / sodium dioctylsulfosuccinate 0.05 weight % (0 for control), 50 ppm EDTA sodium salt
  % Control of Epinasty: 8%
[1]; 1.2 ppm 1-MCP, silicone oil 0.1 weight % in spray (0 for control), 50 ppm EDTA sodium salt
  % Control of Epinasty: 8%
[1]; 70 ppb 1-MCP (as α-CD complex), no adjuvants, 100 ppm EDTA sodium salt, 14 ppm ethylene 12-14 h
  % Control of Epinasty: 10%
[1]; 140 ppb 1-MCP (as α-CD complex), no adjuvants, 100 ppm EDTA sodium salt
  % Control of Epinasty: 15%
[1]; 280 ppb 1-MCP (as α-CD complex), no adjuvants, 100 ppm EDTA sodium salt
  % Control of Epinasty: 35%
[1]; 1400 ppb 1-MCP (as α-CD complex), no adjuvants, 100 ppm EDTA sodium salt
  % Control of Epinasty: 85%
[2]
  % Control of Epinasty: 26%
